Measured values as given in patent US11077090B2, “Compounds and compositions and uses thereof” (Sunovion Pharmaceuticals Inc., priority 2016, dated 2021).
Where two headings read alike, the source gives them in different places.

System: compound-treated mice
Assay: Neuropharmacological assay (SmartCube): behavioral activity signature and minimal effective dose
Type: in vivo
Settings: for minimal effective dose: Mus musculus, ip, MED = dose having 50% or more total activity; for AD: ADHD (probability of activity signature) / AG: analgesic (probability of activity signature) / AX: anxiolytic (probability of activity signature) / CE: cognitive enhancer (probability of activity signature) / DP: anti-depressant (probability of activity signature) / MS: mood stabilizer (probability of activity signature) / PS: anti-psychotic (probability of activity signature) / SD: sedative hypnotic (probability of activity signature) / UN: uncharacterized CNS activity (probability of activity signature): i.p. 15 min before test, most efficacious dose(s)
Procedure, shortened: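 Mice dosed i.p. 15 min before test, compound in N-methyl-2-pyrrolidone/PEG/propylene glycol, 3 doses; video-captured behavior matched to reference-drug signatures, giving per-class probabilities at most efficacious dose. MED from doses typically 0.3–30 mpk, defined as lowest dose with ≥50% total activity.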

[1] = read-out: Potency: minimal effective dose (MED)
[2] = read-out: Potency: minimal effective dose (MED), binned

For `Cc1cccc2c1[C@H](N)[C@@H](C)OC2.Cl` [Example 83], the minimal effective dose [1] was 3 to 10 mg/kg, the “AD: ADHD (probability of activity signature)” value (“AD: ADHD” for short) was “+ (LOQ ≤ + <5%)” and the “AG: analgesic (probability of activity signature)” value (“AG: analgesic” below) was “++ (5% ≤ ++ <25%)”. The “AX: anxiolytic (probability of activity signature)” value (“AX: anxiolytic” below) was “++ (5% ≤ ++ <25%)”, the “CE: cognitive enhancer (probability of activity signature)” value (“CE: cognitive enhancer” for short) was “++ (5% ≤ ++ <25%)” and the “DP: anti-depressant (probability of activity signature)” value (from here on “DP: anti-depressant”) was “+ (LOQ ≤ + <5%)”. For the same compound, the “MS: mood stabilizer (probability of activity signature)” value (shortened to “MS: mood stabilizer”) was “+ (LOQ ≤ + <5%)”, the “PS: anti-psychotic (probability of activity signature)” value (“PS: anti-psychotic” below) was “++ (5% ≤ ++ <25%)” and the “SD: sedative hypnotic (probability of activity signature)” value (“SD: sedative hypnotic” for short) was “+ (LOQ ≤ + <5%)”. The “UN: uncharacterized CNS activity (probability of activity signature)” value (“UN: uncharacterized CNS activity” for short) was “++++ (50% ≤ ++++)”.

In the case of `CC1(C)OCc2ccccc2C1N.Cl` (stereo not drawn) [Example 101, 3,3-Dimethylisochroman-4-amine hydrochloride], the minimal effective dose [1] is reported as 10 to 30 mg/kg, the “AD: ADHD” value is reported as “+ (LOQ ≤ + <5%)” and the “AG: analgesic” value is reported as “++ (5% ≤ ++ <25%)”. The “AX: anxiolytic” value was “+++ (25% ≤ +++ <50%)”, the “CE: cognitive enhancer” value was “+ (LOQ ≤ + <5%)” and the “DP: anti-depressant” value was “++ (5% ≤ ++ <25%)”. The “MS: mood stabilizer” value was “+ (LOQ ≤ + <5%)”, the “PS: anti-psychotic” value was “++ (5% ≤ ++ <25%)” and the “SD: sedative hypnotic” value was “++ (5% ≤ ++ <25%)”. The “UN: uncharacterized CNS activity” value was “+ (LOQ ≤ + <5%)”.

For `CN[C@@H]1COCc2cccc(C)c21` (single isomer, unassigned) [Example 137], the minimal effective dose [1] was 3 to 10 mg/kg, the “AD: ADHD” value was “+ (LOQ ≤ + <5%)” and the “AG: analgesic” value was “++ (5% ≤ ++ <25%)”. For the same compound, the “AX: anxiolytic” value was “++ (5% ≤ ++ <25%)”, the “CE: cognitive enhancer” value was “++ (5% ≤ ++ <25%)” and the “DP: anti-depressant” value was “+ (LOQ ≤ + <5%)”. The “MS: mood stabilizer” value was “+ (LOQ ≤ + <5%)”, the “PS: anti-psychotic” value was “++ (5% ≤ ++ <25%)” and the “SD: sedative hypnotic” value was “+ (LOQ ≤ + <5%)”. For the same compound, the “UN: uncharacterized CNS activity” value was “+++ (25% ≤ +++ <50%)”.

With `C[C@H]1OCc2ccc3c(c2[C@@H]1N)CCCC3.Cl` [Example 197] the minimal effective dose [2] was 3 to 10 mg/kg, the “AD: ADHD” value was “+ (LOQ ≤ + <5%)” and the “AG: analgesic” value was “+ (LOQ ≤ + <5%)”. The “AX: anxiolytic” value was “++ (5% ≤ ++ <25%)”, the “CE: cognitive enhancer” value was “+ (LOQ ≤ + <5%)” and the “DP: anti-depressant” value was “+ (LOQ ≤ + <5%)”. The “MS: mood stabilizer” value was “+ (LOQ ≤ + <5%)”, the “PS: anti-psychotic” value was “+ (LOQ ≤ + <5%)” and the “SD: sedative hypnotic” value was “+ (LOQ ≤ + <5%)”. For the same compound, the “UN: uncharacterized CNS activity” value was “++++ (50% ≤ ++++)”.

In the case of `Cc1ccc2c(c1)COCC2N.Cl` (stereo not drawn) [Example 4], the minimal effective dose [1] is reported as 10 to 30 mg/kg, the “AD: ADHD” value is reported as “+ (LOQ ≤ + <5%)” and the “AG: analgesic” value is reported as “++ (5% ≤ ++ <25%)”. For the same compound, the “AX: anxiolytic” value was “+++ (25% ≤ +++ <50%)”, the “CE: cognitive enhancer” value was “++ (5% ≤ ++ <25%)” and the “DP: anti-depressant” value was “++ (5% ≤ ++ <25%)”. The “MS: mood stabilizer” value was “+ (LOQ ≤ + <5%)”, the “PS: anti-psychotic” value was “++ (5% ≤ ++ <25%)” and the “SD: sedative hypnotic” value was “++ (5% ≤ ++ <25%)”. The “UN: uncharacterized CNS activity” value was “+ (LOQ ≤ + <5%)”.

For `CCN(C)C(=O)Oc1ccc2c(c1)[C@H](N)[C@H](C)OC2.Cl` [Example 281], the minimal effective dose [2] was over 30 mg/kg, the “AD: ADHD” value was “+ (LOQ ≤ + <5%)” and the “AG: analgesic” value was “+ (LOQ ≤ + <5%)”. For the same compound, the “AX: anxiolytic” value was “+ (LOQ ≤ + <5%)”, the “CE: cognitive enhancer” value was “+ (LOQ ≤ + <5%)” and the “DP: anti-depressant” value was “+ (LOQ ≤ + <5%)”. The “MS: mood stabilizer” value was “+ (LOQ ≤ + <5%)”, the “PS: anti-psychotic” value was “+ (LOQ ≤ + <5%)” and the “SD: sedative hypnotic” value was “+ (LOQ ≤ + <5%)”. The “UN: uncharacterized CNS activity” value was “+ (LOQ ≤ + <5%)”.

For `CC[C@@H]1OCc2ccccc2[C@@H]1N.Cl` (single isomer, unassigned) [Example 198], the minimal effective dose [2] was under 3 mg/kg, the “AD: ADHD” value was “+ (LOQ ≤ + <5%)” and the “AG: analgesic” value was “+ (LOQ ≤ + <5%)”. For the same compound, the “AX: anxiolytic” value was “++ (5% ≤ ++ <25%)”, the “CE: cognitive enhancer” value was “++ (5% ≤ ++ <25%)” and the “DP: anti-depressant” value was “++ (5% ≤ ++ <25%)”. The “MS: mood stabilizer” value was “+ (LOQ ≤ + <5%)”, the “PS: anti-psychotic” value was “+++ (25% ≤ +++ <50%)” and the “SD: sedative hypnotic” value was “+ (LOQ ≤ + <5%)”. The “UN: uncharacterized CNS activity” value was “+++ (25% ≤ +++ <50%)”.

In the case of `C[C@@H]1OCc2ccc(F)cc2[C@@H]1N` [Example 185], the minimal effective dose [2] is reported as under 3 mg/kg, the “AD: ADHD” value is reported as “+ (LOQ ≤ + <5%)” and the “AG: analgesic” value is reported as “++ (5% ≤ ++ <25%)”. For the same compound, the “AX: anxiolytic” value was “+++ (25% ≤ +++ <50%)”, the “CE: cognitive enhancer” value was “++ (5% ≤ ++ <25%)” and the “DP: anti-depressant” value was “+ (LOQ ≤ + <5%)”. For the same compound, the “MS: mood stabilizer” value was “+ (LOQ ≤ + <5%)”, the “PS: anti-psychotic” value was “++ (5% ≤ ++ <25%)” and the “SD: sedative hypnotic” value was “+ (LOQ ≤ + <5%)”. For the same compound, the “UN: uncharacterized CNS activity” value was “++++ (50% ≤ ++++)”.

With `Cc1ccc(Cl)c2c1[C@H](N)[C@@H](C)OC2.Cl` [Example 200] the minimal effective dose [2] was 3 to 10 mg/kg, the “AD: ADHD” value was “+ (LOQ ≤ + <5%)” and the “AG: analgesic” value was “++ (5% ≤ ++ <25%)”. For the same compound, the “AX: anxiolytic” value was “+++ (25% ≤ +++ <50%)”, the “CE: cognitive enhancer” value was “++ (5% ≤ ++ <25%)” and the “DP: anti-depressant” value was “++ (5% ≤ ++ <25%)”. The “MS: mood stabilizer” value was “+ (LOQ ≤ + <5%)”, the “PS: anti-psychotic” value was “++ (5% ≤ ++ <25%)” and the “SD: sedative hypnotic” value was “+ (LOQ ≤ + <5%)”. The “UN: uncharacterized CNS activity” value was “++++ (50% ≤ ++++)”.

For `C[C@H]1OCc2ccc(F)cc2[C@H]1N` [Example 186], the minimal effective dose [2] was 3 to 10 mg/kg, the “AD: ADHD” value was “+ (LOQ ≤ + <5%)” and the “AG: analgesic” value was “++ (5% ≤ ++ <25%)”. The “AX: anxiolytic” value was “++ (5% ≤ ++ <25%)”, the “CE: cognitive enhancer” value was “++ (5% ≤ ++ <25%)” and the “DP: anti-depressant” value was “++ (5% ≤ ++ <25%)”. The “MS: mood stabilizer” value was “+ (LOQ ≤ + <5%)”, the “PS: anti-psychotic” value was “++ (5% ≤ ++ <25%)” and the “SD: sedative hypnotic” value was “+ (LOQ ≤ + <5%)”. For the same compound, the “UN: uncharacterized CNS activity” value was “+++ (25% ≤ +++ <50%)”.

In the case of `Cc1ccc2c(c1C)[C@H](N)COC2` [Example 135], the minimal effective dose [1] is reported as under 3 mg/kg, the “AD: ADHD” value is reported as “+ (LOQ ≤ + <5%)” and the “AG: analgesic” value is reported as “++ (5% ≤ ++ <25%)”. For the same compound, the “AX: anxiolytic” value was “+++ (25% ≤ +++ <50%)”, the “CE: cognitive enhancer” value was “++ (5% ≤ ++ <25%)” and the “DP: anti-depressant” value was “++ (5% ≤ ++ <25%)”. For the same compound, the “MS: mood stabilizer” value was “+ (LOQ ≤ + <5%)”, the “PS: anti-psychotic” value was “++ (5% ≤ ++ <25%)” and the “SD: sedative hypnotic” value was “++ (5% ≤ ++ <25%)”. For the same compound, the “UN: uncharacterized CNS activity” value was “+++ (25% ≤ +++ <50%)”.

`COc1ccc2c(c1)C(N)COC2.Cl` (stereo not drawn) [Example 10, 6-Methoxyisochroman-4-amine hydrochloride] was tested, and the minimal effective dose [1] was 3 to 10 mg/kg, the “AD: ADHD” value was “+ (LOQ ≤ + <5%)” and the “AG: analgesic” value was “++ (5% ≤ ++ <25%)”. For the same compound, the “AX: anxiolytic” value was “++ (5% ≤ ++ <25%)”, the “CE: cognitive enhancer” value was “+++ (25% ≤ +++ <50%)” and the “DP: anti-depressant” value was “++ (5% ≤ ++ <25%)”. The “MS: mood stabilizer” value was “+ (LOQ ≤ + <5%)”, the “PS: anti-psychotic” value was “+++ (25% ≤ +++ <50%)” and the “SD: sedative hypnotic” value was “++ (5% ≤ ++ <25%)”. The “UN: uncharacterized CNS activity” value was “++ (5% ≤ ++ <25%)”.
